# Test system: 953936-095-R-J2-PDC spheroids with HUVEC/MSC, viability
# Assay: Anticancer human tumor 953936-095-R-J2-PDC patient-derived cervical squamous cell carcinoma cell line growth inhibition [PI3K]
# Conditions: for IC50: curve of first compound; for viability, T/C: stronger effect = lower value
# Outline: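 Agents were dosed from a top concentration near clinical Cmax (otherwise 10 microM) in half-log decrements, alone or combined with PI3K inhibitors. The spheroids contain tumor cells plus endothelial (HUVEC) and MSC stroma; viability is measured.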
# [1] = second compound 0.0316 µM, first compound 0.0316 µM
# [2] = second compound 0.0316 µM, first compound 0.1 µM
# [3] = second compound 0.0316 µM, first compound 0.316 µM
# [4] = second compound 0.0316 µM, first compound 1 µM
# [5] = second compound 0.0316 µM, first compound 3.16 µM
# [6] = second compound 0.0316 µM, first compound 10 µM
# [7] = second compound 0.1 µM, first compound 0.0316 µM
# [8] = second compound 0.1 µM, first compound 0.1 µM
# [9] = second compound 0.1 µM, first compound 0.316 µM
# [10] = second compound 0.1 µM, first compound 1 µM
# [11] = second compound 0.1 µM, first compound 3.16 µM
# [12] = second compound 0.1 µM, first compound 10 µM
# [13] = second compound 0.316 µM, first compound 0.0316 µM
# [14] = second compound 0.316 µM, first compound 0.1 µM
# [15] = second compound 0.316 µM, first compound 0.316 µM
# [16] = second compound 0.316 µM, first compound 1 µM
# [17] = second compound 0.316 µM, first compound 3.16 µM
# [18] = second compound 0.316 µM, first compound 10 µM
# [19] = second compound 1 µM, first compound 0.0316 µM
# [20] = second compound 1 µM, first compound 0.1 µM
# [21] = second compound 1 µM, first compound 0.316 µM
# [22] = second compound 1 µM, first compound 1 µM
# [23] = second compound 1 µM, first compound 3.16 µM
# [24] = second compound 1 µM, first compound 10 µM
# [25] = second compound 3.16 µM, first compound 0.0316 µM
# [26] = second compound 3.16 µM, first compound 0.1 µM
# [27] = second compound 3.16 µM, first compound 0.316 µM
# [28] = second compound 3.16 µM, first compound 1 µM
# [29] = second compound 3.16 µM, first compound 3.16 µM
# [30] = second compound 3.16 µM, first compound 10 µM
# [31] = second compound 10 µM, first compound 0.0316 µM
# [32] = second compound 10 µM, first compound 0.1 µM
# [33] = second compound 10 µM, first compound 0.316 µM
# [34] = second compound 10 µM, first compound 1 µM
# [35] = second compound 10 µM, first compound 3.16 µM
# [36] = second compound 10 µM, first compound 10 µM
# 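Note: spheroids exposed to compounds for seven days before read-out.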
smiles,measurement,setting,value
C#Cc1c(F)ccc2cc(O)cc(-c3ncc4c(N5CC6CCC(C5)N6)nc(OCC56CCCN5CC(F)C6)nc4c3F)c12 (stereo unspecified) + Cc1nc(NC(=O)N2CCCC2C(N)=O)sc1-c1ccnc(C(C)(C)C(F)(F)F)c1,IC50,second compound 0.0316 µM,> 10000 nM
same,IC50,second compound 0.1 µM,> 10000 nM
same,IC50,second compound 0.316 µM,1350 nM
same,IC50,second compound 1 µM,< 31.6 nM
same,IC50,second compound 3.16 µM,< 31.6 nM
same,IC50,second compound 10 µM,< 31.6 nM
same,"viability, T/C",[1],97.6%
same,"viability, T/C",[2],102%
same,"viability, T/C",[3],92.3%
same,"viability, T/C",[4],82.2%
same,"viability, T/C",[5],71.3%
same,"viability, T/C",[6],67.9%
same,"viability, T/C",[7],79.7%
same,"viability, T/C",[8],81.7%
same,"viability, T/C",[9],92.8%
same,"viability, T/C",[10],74.6%
same,"viability, T/C",[11],61.9%
same,"viability, T/C",[12],51.9%
same,"viability, T/C",[13],64.7%
same,"viability, T/C",[14],59.1%
same,"viability, T/C",[15],57%
same,"viability, T/C",[16],49.4%
same,"viability, T/C",[17],48.9%
same,"viability, T/C",[18],38.2%
same,"viability, T/C",[19],43.8%
same,"viability, T/C",[20],42.3%
same,"viability, T/C",[21],39%
same,"viability, T/C",[22],34.7%
same,"viability, T/C",[23],28.3%
same,"viability, T/C",[24],21.6%
same,"viability, T/C",[25],25.2%
same,"viability, T/C",[26],23.8%
same,"viability, T/C",[27],22.5%
same,"viability, T/C",[28],17.2%
same,"viability, T/C",[29],12.3%
same,"viability, T/C",[30],10.1%
same,"viability, T/C",[31],10.3%
same,"viability, T/C",[32],10%
same,"viability, T/C",[33],8.35%
same,"viability, T/C",[34],7.39%
same,"viability, T/C",[35],6.74%
same,"viability, T/C",[36],4.92%
C=CC(=O)N1CCN(c2nc(=O)n(-c3c(C)ccnc3C(C)C)c3nc(-c4c(O)cccc4F)c(F)cc23)C(C)C1 (stereo unspecified) + Cc1nc(NC(=O)N2CCCC2C(N)=O)sc1-c1ccnc(C(C)(C)C(F)(F)F)c1,IC50,second compound 0.0316 µM,> 10000 nM
same,IC50,second compound 0.1 µM,> 10000 nM
same,IC50,second compound 0.316 µM,> 10000 nM
same,IC50,second compound 1 µM,< 31.6 nM
same,IC50,second compound 3.16 µM,< 31.6 nM
same,IC50,second compound 10 µM,< 31.6 nM
same,"viability, T/C",[1],85.5%
same,"viability, T/C",[2],89.2%
same,"viability, T/C",[3],95.8%
same,"viability, T/C",[4],109%
same,"viability, T/C",[5],110%
same,"viability, T/C",[6],105%
same,"viability, T/C",[7],81.9%
same,"viability, T/C",[8],83.7%
same,"viability, T/C",[9],90.2%
same,"viability, T/C",[10],98.6%
same,"viability, T/C",[11],123%
same,"viability, T/C",[12],117%
same,"viability, T/C",[13],64.5%
same,"viability, T/C",[14],65.7%
same,"viability, T/C",[15],68.8%
same,"viability, T/C",[16],86%
same,"viability, T/C",[17],84.4%
same,"viability, T/C",[18],73.7%
same,"viability, T/C",[19],46%
same,"viability, T/C",[20],52.1%
same,"viability, T/C",[21],47.7%
same,"viability, T/C",[22],51.5%
same,"viability, T/C",[23],55.9%
same,"viability, T/C",[24],48%
same,"viability, T/C",[25],27%
same,"viability, T/C",[26],27.8%
same,"viability, T/C",[27],27%
same,"viability, T/C",[28],32.8%
same,"viability, T/C",[29],33.4%
same,"viability, T/C",[30],26.1%
same,"viability, T/C",[31],11.5%
same,"viability, T/C",[32],11.8%
same,"viability, T/C",[33],11.9%
same,"viability, T/C",[34],11.9%
same,"viability, T/C",[35],10.8%
same,"viability, T/C",[36],7.49%
CC(Cn1ccc(-c2ccc(C#N)c(Cl)c2)n1)NC(=O)c1cc(C(C)O)[nH]n1 (stereo unspecified) + Cc1nc(NC(=O)N2CCCC2C(N)=O)sc1-c1ccnc(C(C)(C)C(F)(F)F)c1,IC50,second compound 0.0316 µM,> 10000 nM
same,IC50,second compound 0.1 µM,> 10000 nM
same,IC50,second compound 0.316 µM,> 10000 nM
same,IC50,second compound 1 µM,< 31.6 nM
same,IC50,second compound 3.16 µM,< 31.6 nM
same,IC50,second compound 10 µM,< 31.6 nM
same,"viability, T/C",[1],83.7%
same,"viability, T/C",[2],95.2%
same,"viability, T/C",[3],86.4%
same,"viability, T/C",[4],96.9%
same,"viability, T/C",[5],89.8%
same,"viability, T/C",[6],107%
same,"viability, T/C",[7],84.8%
same,"viability, T/C",[8],77.9%
same,"viability, T/C",[9],78.2%
same,"viability, T/C",[10],81.2%
same,"viability, T/C",[11],82.4%
same,"viability, T/C",[12],79.5%
same,"viability, T/C",[13],69.4%
same,"viability, T/C",[14],65.3%
same,"viability, T/C",[15],74.1%
same,"viability, T/C",[16],61%
same,"viability, T/C",[17],61.7%
same,"viability, T/C",[18],66.5%
same,"viability, T/C",[19],43.9%
same,"viability, T/C",[20],41.7%
same,"viability, T/C",[21],43.5%
same,"viability, T/C",[22],45.9%
same,"viability, T/C",[23],44.1%
same,"viability, T/C",[24],44.6%
same,"viability, T/C",[25],24.7%
same,"viability, T/C",[26],26.9%
same,"viability, T/C",[27],27.6%
same,"viability, T/C",[28],25.2%
same,"viability, T/C",[29],26.9%
same,"viability, T/C",[30],28.4%
same,"viability, T/C",[31],10.3%
same,"viability, T/C",[32],10.8%
same,"viability, T/C",[33],10.9%
same,"viability, T/C",[34],11.1%
same,"viability, T/C",[35],10.8%
same,"viability, T/C",[36],13%
